Results reported in US6521641B1, “Male anti-fertility agents” (Allergan, Inc., priority 1998, dated 2003).

System: Sprague-Dawley rats
Assay: Topical administration of AGN 193109 to rats with Recovery group (Example 4)
Format: in vivo, rat
Method: This experiment is conducted as indicated in Example 2, except that the drug is 193109 rather than AGN 194310, and a Recovery group is monitored for a period of time post-treatment as in Example 3. Dosages of the '109 drug is the same as for the topical treatment with the '310 drug.

[1] = rats, topical, at the effective dose

## Cc1ccc(C2=CCC(C)(C)c3ccc(C#Cc4ccc(C(=O)O)cc4)cc32)cc1 [AGN 193109]
Male rats 12 weeks after administration
  reversibility (testes histology): repopulation of the tubules with males gametes in various stages of development
[1]
  histological analysis of the testes: absence of primary spermatocytes, spermatids and spermatozoa in the majority of animals' seminiferous tubules
  spermatogenic arrest (examination of the testes): spermatogenic arrest can be seen within thirty days after initiation of treatment
